≈ marks a conversion by molar mass, not a printed value. Read-outs that look alike come from different tables or passages of the source. *1 amine or outer side, *2 acyl side, *3 side chain or, on linkers, in order; H or OH if unused. Where a SMILES comes first, the peptide text is derived from it. Bridges are numbered along the chain shown (N, C = ends). [ ]: non-standard residue; d: D form. The star is where a group is joined. ξ: configuration not given here. NH(1,3-benzodioxol-5-yl) = c1cc2c(cc1N*)OCO2; Phe(3,5-F2) = N[C@@H](Cc1cc(F)cc(F)c1)C(=O)O; NH(4-OCF3-phenyl) = FC(F)(F)Oc1ccc(N*)cc1; Pro(4S-Me) = C[C@@H]1CN[C@H](C(=O)O)C1; Pro(4R-Me) = C[C@H]1CN[C@H](C(=O)O)C1; ξPro(4S-Me) = C[C@@H]1CNC(C(=O)O)C1; ξPro(4R-Me) = C[C@H]1CNC(C(=O)O)C1; Hyp = O=C(O)[C@@H]1C[C@@H](O)CN1; NH(4-Me-phenyl) = Cc1ccc(N*)cc1; aThr = C[C@H](O)[C@H](N)C(=O)O; X5 = O=C(C1COCCN1[*:1])[*:2]; X12 = c1nc2ccc(N*)cc2[nH]1; Pip = O=C(O)[C@@H]1CCCCN1; NMeA = CN[C@@H](C)C(=O)O; CO = O=C([*:1])[*:2]; ξP = O=C(O)C1CCCN1
Legend:
Format in all cases: cell-based
[1] = test system: Staphylococcus aureus, USA 300; assay: Minimal inhibitory concentration assay; settings: USA300, read-out: Minimal Inhibitory Concentrations S. aureus USA 300
Description: (§1) It is understood, that in various aspects, the MIC is determined by a microbroth dilution method. In a further aspect, the MIC is determined by a microbroth dilution method using Staphylococcus aureus, ATCC 29213. In a still further aspect, the MIC is determined by a microbroth dilution method using Staphylococcus aureus, NRS70. In a yet further aspect, the MIC is determined by a microbroth dilution method using Streptococcus pyogenes, ATCC 700294. In an even further aspect, the MIC is determined by a microbroth dilution method using Streptococcus pneumoniae, DAW27. In a still further aspect, the MIC is determined by a microbroth dilution method using Bacillus subtilis, ATCC 23857. In a yet further aspect, the MIC is determined by a microbroth dilution method using Enterococcus faecalis, ATCC 33186. In an even further aspect, the MIC is determined using Staphylococcus aureus, USA 300. In a still further aspect, the MIC is determined using Streptococcus pneumoniae, R6. In a further aspect, the MIC is determined using Staphylococcus aureus, USA 300 and compared to the MIC determined using Staphylococcus aureus, USA 300 wherein ClpP is inactivated, thus allowing confirmation that killing is via a ClpP-dependent pathway.
(§2) Minimal inhibitory concentrations (“MICs”) were determined using the microbroth dilution method according to Clinical Laboratory Standards Institute (CLSI; National, C.F. C. L. S., Methods for Dilution Antimicrobial Susceptibility Tests for Bacteria Grow aerobically-Seventh Edition: Approved Standard M7-A7, CLSI, Wayne, Pa., USA, 2008) and were read by visual inspection. Two fold serial dilutions of test compound in 100 μL of the appropriate broth media were first prepared in 96-well round bottom microtiter plates (Nalgene Nunc International, Rochester, N.Y., USA). An equivalent volume (100 μL) of bacterial broth inocula containing approximately 10^5 bacterial cfu/mL was added to each well to give final concentrations of test compound starting at 200 μM. The plates were then incubated aerobically at 37° C. All strains were incubated overnight. After incubations, in all cases the MIC was recorded as the lowest concentration of drug that prevented bacterial growth. The bacterial strains for which MIC was determined as described in Table 4.

[2] = test system: Staphylococcus aureus, USA 300 wherein ClpP is inactivated; assay: Minimal inhibitory concentration assay
Description: as §1, §2

[3] = test system: Staphylococcus aureus, ATCC 29213; assay: Minimal inhibitory concentration assay (microbroth dilution); settings: ATCC29213, read-out: Minimal Inhibitory Concentrations S. aureus ATCC 29213
Description: as §1, §2

[4] = test system: Bacillus subtilis, ATCC 23857; assay: as above
Description: as §1, §2

[5] = test system: Staphylococcus aureus, NRS70; assay: as above
Description: as §1, §2

[6] = test system: Enterococcus faecalis, ATCC 33186; assay: as above
Description: as §1, §2

[7] = test system: Streptococcus pyogenes, ATCC 700294; assay: as above
Description: as §1
Minimal inhibitory concentrations (“MICs”) were determined using the microbroth dilution method according to Clinical Laboratory Standards Institute (CLSI; National, C.F. C. L. S., Methods for Dilution Antimicrobial Susceptibility Tests for Bacteria Grow aerobically-Seventh Edition: Approved Standard M7-A7, CLSI, Wayne, Pa., USA, 2008) and were read by visual inspection. Two fold serial dilutions of test compound in 100 μL of the appropriate broth media were first prepared in 96-well round bottom microtiter plates (Nalgene Nunc International, Rochester, N.Y., USA). […] The plates were then incubated aerobically at 37° C. All strains were incubated overnight. After incubations, in all cases the MIC was recorded as the lowest concentration of drug that prevented bacterial growth. The bacterial strains for which MIC was determined as described in Table 4.

[8] = test system: Streptococcus pneumoniae, R6; assay: Minimal inhibitory concentration assay; settings: read-out: Minimal Inhibitory Concentrations S. pneumoniae R6
Description: It is understood, that in various aspects, the MIC is determined by a microbroth dilution method. […] In a still further aspect, the MIC is determined by a microbroth dilution method using Staphylococcus aureus, NRS70. […] In an even further aspect, the MIC is determined by a microbroth dilution method using Streptococcus pneumoniae, DAW27. […] In an even further aspect, the MIC is determined using Staphylococcus aureus, USA 300. In a still further aspect, the MIC is determined using Streptococcus pneumoniae, R6. In a further aspect, the MIC is determined using Staphylococcus aureus, USA 300 and compared to the MIC determined using Staphylococcus aureus, USA 300 wherein ClpP is inactivated, thus allowing confirmation that killing is via a ClpP-dependent pathway.
Two fold serial dilutions of test compound in 100 μL of the appropriate broth media were first prepared in 96-well round bottom microtiter plates (Nalgene Nunc International, Rochester, N.Y., USA). […] The plates were then incubated aerobically at 37° C. All strains were incubated overnight. After incubations, in all cases the MIC was recorded as the lowest concentration of drug that prevented bacterial growth. The bacterial strains for which MIC was determined as described in Table 4.

[9] = Bacillus subtilis, ATCC23857; read-out: Minimal Inhibitory Concentrations B. subtilis ATCC 23857
[10] = Staphylococcus aureus, NRS70; read-out: Minimal Inhibitory Concentrations S. aureus NRS70
[11] = Enterococcus faecalis, ATCC33186; read-out: Minimal Inhibitory Concentrations E. faecalis ATCC 33186
[12] = Streptococcus pyogenes, ATCC700294; read-out: Minimal Inhibitory Concentrations S. pyogenes ATCC 700294
[13] = Bacillus subtilis, ATCC23857, read-out: Minimal Inhibitory Concentrations B. subtilis ATCC 23857
[14] = Staphylococcus aureus, NRS70, read-out: Minimal Inhibitory Concentrations S. aureus NRS70
[15] = Streptococcus pyogenes, ATCC700294, read-out: Minimal Inhibitory Concentrations S. pyogenes ATCC 700294

Structure (SMILES) | MIC [1] | Minimal Inhibitory Concentrations S. aureus USA 300 ΔClpP [2] | MIC [3] | MIC [4, 9] | MIC [5, 10] | MIC [6, 11] | MIC [7, 12] | MIC [8] | MIC [4, 13] | MIC [5, 14] | MIC [7, 15] | MIC ([6]; Enterococcus faecalis, ATCC33186, read-out: Minimal Inhibitory Concentrations E. faecalis ATCC 33186)
C[C@@H]1NC(=O)[C@@H]2CCCCN2C(=O)[C@@H]2CCCN2C(=O)[C@@H](NC(=O)[C@H](Cc2cc(F)cc(F)c2)NC(=O)Nc2ccc3c(c2)OCO3)[C@H](C)OC(=O)[C@@H]2CCCN2C1=O [Compound 17, (S)-2-(3-(benzo[d][1,3]dioxol-5-yl)ureido)-3-(3,5-difluorophenyl)-N-((6S,8aS,14aS,20S,21S,23aS)-6,21-dimethyl-5,8,14,19,23-pentaoxooctadecahydro-1H,5H,14H,19H-pyrido[2,1-i]dipyrrolo[2,1-c:2′,1′-l][1]oxa[4,7,10,13]tetraazacyclohexadecin-20-yl)propanamide] ({NH(1,3-benzodioxol-5-yl)-CO}-[Phe(3,5-F2)][aThr]P[Pip]AP; ester 2-C) | 3.1 µM (≈ 2.55 µg/mL) | 200 µM | 3.1 µM (≈ 2.55 µg/mL) | 0.4 µM (≈ 0.33 µg/mL) | 3.1 µM (≈ 2.55 µg/mL) | < 0.1 µM | 1.5 µM (≈ 1.24 µg/mL) | – | – | – | – | –
C[C@H]1C[C@H]2C(=O)O[C@@H](C)[C@H](NC(=O)[C@H](Cc3cc(F)cc(F)c3)NC(=O)Nc3ccc4c(c3)OCO4)C(=O)N3CCC[C@H]3C(=O)N3CCCC[C@H]3C(=O)N[C@@H](C)C(=O)N2C1 [Compound 20, (S)-2-(3-(benzo[d][1,3]dioxol-5-yl)ureido)-3-(3,5-difluorophenyl)-N-((2R,6S,8aS,14aS,20S,21S,23aS)-2,6,21-trimethyl-5,8,14,19,23-pentaoxooctadecahydro-1H,5H,14H,19H-pyrido[2,1-i]dipyrrolo[2,1-c:2′,1′-l][1]oxa[4,7,10,13]tetraazacyclohexadecin-20-yl)propanamide] ({NH(1,3-benzodioxol-5-yl)-CO}-[Phe(3,5-F2)][aThr]P[Pip]A[Pro(4S-Me)]; ester 2-C) | 0.8 µM (≈ 0.67 µg/mL) | 200 µM | 0.8 µM (≈ 0.67 µg/mL) | < 0.1 µM | 0.4 µM (≈ 0.335 µg/mL) | < 0.1 µM | 0.4 µM (≈ 0.335 µg/mL) | – | – | – | – | –
C[C@H]1CC2C(=O)O[C@@H](C)[C@H](NC(=O)[C@H](Cc3cc(F)cc(F)c3)NC(=O)Nc3ccc(OC(F)(F)F)cc3)C(=O)N3CCCC3C(=O)N(C)[C@@H](C)C(=O)N[C@@H](C)C(=O)N2C1 (stereo partly drawn) [Compound 28, (2S)-3-(3,5-difluorophenyl)-N-((2S,6S,9S,11aS,17S,18S)-2,6,9,10,18-pentamethyl-5,8,11,16,20-pentaoxohexadecahydro-1H,5H,16H-dipyrrolo[2,1-c:2′,1′-l][1]oxa[4,7,10,13]tetraazacyclohexadecin-17-yl)-2-(3-(4-(trifluoromethoxy)phenyl)ureido)propanamide] ({NH(4-OCF3-phenyl)-CO}-[Phe(3,5-F2)][aThr][ξP][NMeA]A[ξPro(4S-Me)]; ester 2-C) | 0.1 µM (≈ 0.0852 µg/mL) | – | 0.05 µM (≈ 0.0426 µg/mL) | 0.01 µM (≈ 0.00852 µg/mL) | 0.05 µM (≈ 0.0426 µg/mL) | – | 0.23 µM (≈ 0.196 µg/mL) | 0.029 µM (≈ 0.0247 µg/mL) | – | – | – | –
Cc1ccc(NC(=O)N[C@@H](Cc2cc(F)cc(F)c2)C(=O)N[C@@H]2C(=O)N3CCCC3C(=O)N3CCOCC3C(=O)N[C@@H](C)C(=O)N3C[C@H](C)CC3C(=O)O[C@H]2C)cc1 (stereo partly drawn) [Compound 47, (S)-3-(3,5-difluorophenyl)-2-(3-(p-tolyl)ureido)-N-((6aS,12S,13S,15aS,17R,21S,23aS)-13,17,21-trimethyl-6,11,15,20,23-pentaoxooctadecahydro-6H,11H,15H-[1,4]oxazino[3,4-i]dipyrrolo[2,1-c:2′,1′-l][1]oxa[4,7,10,13]tetraazacyclohexadecin-12-yl)propanamide] ({NH(4-Me-phenyl)-CO}-[Phe(3,5-F2)][aThr][ξP][X5]A[ξPro(4R-Me)]; ester 2-C) | 0.01 µM (≈ 0.0081 µg/mL) | >200 µM | 0.003 µM (≈ 0.00243 µg/mL) | – | – | – | – | 0.002 µM (≈ 0.00162 µg/mL) | 0.8 µM (≈ 0.648 µg/mL) | 0.0002 µM (≈ 0.000162 µg/mL) | 0.02 µM (≈ 0.0162 µg/mL) | –
Cc1ccc(NC(=O)N[C@@H](Cc2cc(F)cc(F)c2)C(=O)N[C@@H]2C(=O)N3C[C@H](O)C[C@H]3C(=O)N3CCCC[C@H]3C(=O)N[C@@H](C)C(=O)N3C[C@H](C)C[C@H]3C(=O)O[C@H]2C)cc1 [Compound 216, (S)-3-(3,5-difluorophenyl)-N-((2R,6S,8aS,14aS,16R,20S,21S,23aS)-16-hydroxy-2,6,21-trimethyl-5,8,14,19,23-pentaoxooctadecahydro-1H,5H,14H,19H-pyrido[2,1-i]dipyrrolo[2,1-c:2′,1′-l][1]oxa[4,7,10,13]tetraazacyclohexadecin-20-yl)-2-(3-(p-tolyl)ureido)propanamide] ({NH(4-Me-phenyl)-CO}-[Phe(3,5-F2)][aThr][Hyp][Pip]A[Pro(4R-Me)]; ester 2-C) | 0.1 µM (≈ 0.0824 µg/mL) | – | – | – | – | – | – | 0.001 µM (≈ 0.000824 µg/mL) | 0.2 µM (≈ 0.165 µg/mL) | 0.2 µM (≈ 0.165 µg/mL) | 0.2 µM (≈ 0.165 µg/mL) | –
C[C@@H]1C[C@H]2C(=O)O[C@@H](C)[C@H](NC(=O)[C@H](Cc3cc(F)cc(F)c3)NC(=O)Nc3ccc4nc[nH]c4c3)C(=O)N3CCC[C@H]3C(=O)N3CCCC[C@H]3C(=O)N[C@@H](C)C(=O)N2C1 [Compound 303, (S)-2-(3-(1H-benzo[d]imidazol-6-yl)ureido)-3-(3,5-difluorophenyl)-N-((2R,6S,8aS,14aS,20S,21S,23aS)-2,6,21-trimethyl-5,8,14,19,23-pentaoxooctadecahydro-1H,5H,14H,19H-pyrido[2,1-i]dipyrrolo[2,1-c:2′,1′-l][1]oxa[4,7,10,13]tetraazacyclo-hexadecin-20-yl)propanamide] ({X12-CO}-[Phe(3,5-F2)][aThr]P[Pip]A[Pro(4R-Me)]; ester 2-C) | 15.1 µM (≈ 12.6 µg/mL) | >20 µM | 20 µM (≈ 16.7 µg/mL) | – | – | – | – | – | – | 10.1 µM (≈ 8.42 µg/mL) | – | 2.5 µM (≈ 2.08 µg/mL)
